These compounds were tested against T1, human JAK2 (Homo sapiens, UniProt O60674) (assay: In vitro JAK kinase assay (HTRF, phosphorylation of biotinylated peptide)). Conditions: catalytic domain a.a. 828-1132, 30 μM ATP, 500 nM peptide, room temperature 1 hr; read-out: JAK-2 IC50.
T1 construct: JAK2 (a.a. 828-1132); His tag (N); made in house; host or cells: insect cells (baculovirus)
Format: biochemical
How it was run: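 His-tagged human JAK2 catalytic domain (a.a. 828-1132), baculovirus/insect-cell expressed; phosphorylation of 500 nM biotinylated peptide at 30 μM ATP in 50 mM Tris pH 7.8, 100 mM NaCl, 5 mM DTT, 0.01% BSA. 1 h at room temperature, EDTA stop, HTRF read (Eu-Py20/SA-APC); IC50.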

T1 sequence (O60674 828-1132): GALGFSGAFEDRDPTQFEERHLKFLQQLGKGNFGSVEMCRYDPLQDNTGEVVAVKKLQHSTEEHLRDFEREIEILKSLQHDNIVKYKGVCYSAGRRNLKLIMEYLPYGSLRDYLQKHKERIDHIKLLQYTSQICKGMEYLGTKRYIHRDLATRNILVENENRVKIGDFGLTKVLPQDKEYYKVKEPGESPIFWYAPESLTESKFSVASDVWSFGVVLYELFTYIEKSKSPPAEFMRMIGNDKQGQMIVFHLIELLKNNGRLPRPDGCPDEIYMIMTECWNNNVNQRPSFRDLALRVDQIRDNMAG

Row | Structure (SMILES) | IC50
1 | Cn1ccc(S(=O)(=O)N2CCC(CC(CC#N)n3cc(-c4ccnc(Nc5ccc(-n6cccn6)cc5)n4)cn3)CC2)n1 (racemic) [Example 56, 3-(4-(2-(4-(1H-pyrazol-1-yl)phenylamino)pyrimidin-4-yl)-1H-pyrazol-1-yl)-4-(1-(1-methyl-1H-pyrazol-3-ylsulfonyl)piperidin-4-yl)butanenitrile] | < 100 nM
2 | Cn1ccc(S(=O)(=O)N2CCC(CC(CC#N)n3cc(-c4ccnc(Nc5ccccc5)n4)cn3)CC2)n1 (racemic) [Example 57, 4-(1-(1-methyl-1H-pyrazol-3-ylsulfonyl)piperidin-4-yl)-3-(4-(2-(phenylamino)pyrimidin-4-yl)-1H-pyrazol-1-yl)butanenitrile] | < 100 nM
3 | CN(C)C(=O)c1ccc(Nc2nccc(-c3cnn(C(CC#N)CC4CCN(S(=O)(=O)c5ccn(C)n5)CC4)c3)n2)cc1 (racemic) [Example 58, 4-(4-(1-(1-cyano-3-(1-(1-methyl-1H-pyrazol-3-ylsulfonyl)piperidin-4-yl)propan-2-yl)-1H-pyrazol-4-yl)pyrimidin-2-ylamino)-N,N-dimethylbenzamide] | < 100 nM
4 | CN(C)C(=O)c1ccc(Nc2nccc(-c3cnn(C(CC#N)CC4CCN(C(=O)c5ccc(F)cc5F)CC4)c3)n2)cc1 (racemic) [Example 59, 4-(4-(1-(1-cyano-3-(1-(2,4-difluorobenzoyl)piperidin-4-yl)propan-2-yl)-1H-pyrazol-4-yl)pyrimidin-2-ylamino)-N,N-dimethylbenzamide] | < 100 nM
5 | CC(=O)Nc1ccc(Nc2nccc(-c3cnn(C(CC#N)CC4CCN(C(=O)c5ccc(F)cc5F)CC4)c3)n2)cc1 (racemic) [Example 60, N-(4-(4-(1-(1-cyano-3-(1-(2,4-difluorobenzoyl)piperidin-4-yl)propan-2-yl)-1H-pyrazol-4-yl)pyrimidin-2-ylamino)phenyl)acetamide] | < 100 nM
6 | Cc1cnc(Nc2ccc(N3CCOCC3)cc2)nc1-c1cnn(C(CC#N)CC2CCN(S(=O)(=O)c3ccn(C)n3)CC2)c1 (racemic) [Example 61, 4-(1-(1-methyl-1H-pyrazol-3-ylsulfonyl)piperidin-4-yl)-3-(4-(5-methyl-2-(4-morpholinophenylamino)pyrimidin-4-yl)-1H-pyrazol-1-yl)butanenitrile] | < 100 nM
7 | Cc1cnc(Nc2ccc(N3CCOCC3)cc2)nc1-c1cnn(C(CC#N)CC2CCN(C(=O)c3ccc(F)cc3F)CC2)c1 (racemic) [Example 62, 4-(1-(2,4-difluorobenzoyl)piperidin-4-yl)-3-(4-(5-methyl-2-(4-morpholinophenylamino)pyrimidin-4-yl)-1H-pyrazol-1-yl)butanenitrile] | < 100 nM
8 | Cc1cnc(Nc2ccc(-n3cccn3)cc2)nc1-c1cnn(C(CC#N)CC2CCN(S(=O)(=O)c3ccn(C)n3)CC2)c1 (racemic) [Example 63, 3-(4-(2-(4-(1H-pyrazol-1-yl)phenylamino)-5-methylpyrimidin-4-yl)-1H-pyrazol-1-yl)-4-(1-(1-methyl-1H-pyrazol-3-ylsulfonyl)piperidin-4-yl)butanenitrile] | < 100 nM
9 | Cc1cnc(Nc2ccc(-n3cccn3)cc2)nc1-c1cnn(C(CC#N)CC2CCN(C(=O)c3ccc(F)cc3F)CC2)c1 (racemic) [Example 64, 3-(4-(2-(4-(1H-pyrazol-1-yl)phenylamino)-5-methylpyrimidin-4-yl)-1H-pyrazol-1-yl)-4-(1-(2,4-difluorobenzoyl)piperidin-4-yl)butanenitrile] | < 100 nM
10 | Cc1cnc(Nc2ccccc2)nc1-c1cnn(C(CC#N)CC2CCN(S(=O)(=O)c3ccn(C)n3)CC2)c1 (racemic) [Example 65, 4-(1-(1-methyl-1H-pyrazol-3-ylsulfonyl)piperidin-4-yl)-3-(4-(5-methyl-2-(phenylamino)pyrimidin-4-yl)-1H-pyrazol-1-yl)butanenitrile] | < 100 nM
11 | Cc1cnc(Nc2ccccc2)nc1-c1cnn(C(CC#N)CC2CCN(C(=O)c3ccc(F)cc3F)CC2)c1 (racemic) [Example 66, 4-(1-(2,4-difluorobenzoyl)piperidin-4-yl)-3-(4-(5-methyl-2-(phenylamino)pyrimidin-4-yl)-1H-pyrazol-1-yl)butanenitrile] | < 100 nM
12 | Cc1cnc(Nc2ccc(C(=O)N(C)C)cc2)nc1-c1cnn(C(CC#N)CC2CCN(S(=O)(=O)c3ccn(C)n3)CC2)c1 (racemic) [Example 67, 4-(4-(1-(1-cyano-3-(1-(1-methyl-1H-pyrazol-3-ylsulfonyl)piperidin-4-yl)propan-2-yl)-1H-pyrazol-4-yl)-5-methylpyrimidin-2-ylamino)-N,N-dimethylbenzamide] | < 100 nM
13 | Cc1cnc(Nc2ccc(C(=O)N(C)C)cc2)nc1-c1cnn(C(CC#N)CC2CCN(C(=O)c3ccc(F)cc3F)CC2)c1 (racemic) [Example 68, 4-(4-(1-(1-cyano-3-(1-(2,4-difluorobenzoyl)piperidin-4-yl)propan-2-yl)-1H-pyrazol-4-yl)-5-methylpyrimidin-2-ylamino)-N,N-dimethylbenzamide] | < 100 nM
14 | CC(=O)Nc1ccc(Nc2ncc(C)c(-c3cnn(C(CC#N)CC4CCN(C(=O)c5ccc(F)cc5F)CC4)c3)n2)cc1 (racemic) [Example 69, N-(4-(4-(1-(1-cyano-3-(1-(2,4-difluorobenzoyl)piperidin-4-yl)propan-2-yl)-1H-pyrazol-4-yl)-5-methylpyrimidin-2-ylamino)phenyl)acetamide] | < 100 nM
15 | Cc1cnc(Nc2ccc(C(N)=O)cc2)nc1-c1cnn(C(CC#N)C2CCCC2)c1 (racemic) [Example 70, 4-(4-(1-(2-cyano-1-cyclopentylethyl)-1H-pyrazol-4-yl)-5-methylpyrimidin-2-ylamino)benzamide] | < 100 nM
16 | Cc1cnc(Nc2ccc(-n3cccn3)cc2)nc1-c1cnn(C(CC#N)C2CCCC2)c1 (racemic) [Example 71, 3-(4-(2-(4-(1H-pyrazol-1-yl)phenylamino)-5-methylpyrimidin-4-yl)-1H-pyrazol-1-yl)-3-cyclopentylpropanenitrile] | < 100 nM
17 | Cc1cnc(Nc2ccc(N3CCOCC3)cc2)nc1-c1cnn(C(CC#N)C2CCCC2)c1 (racemic) [Example 72, 3-cyclopentyl-3-(4-(5-methyl-2-(4-morpholinophenylamino)pyrimidin-4-yl)-1H-pyrazol-1-yl)propanenitrile] | < 100 nM
18 | Cc1cnc(Nc2ccccc2)nc1-c1cnn(C(CC#N)C2CCCC2)c1 (racemic) [Example 73, 3-cyclopentyl-3-(4-(5-methyl-2-(phenylamino)pyrimidin-4-yl)-1H-pyrazol-1-yl)propanenitrile] | < 100 nM
19 | Cc1cnc(Nc2ccc(-c3cnco3)cc2)nc1-c1cnn(C(CC#N)C2CCCC2)c1 (racemic) [Example 74, 3-cyclopentyl-3-(4-(5-methyl-2-(4-(oxazol-5-yl)phenylamino)pyrimidin-4-yl)-1H-pyrazol-1-yl)propanenitrile] | < 100 nM
20 | COc1ccc(Nc2ncc(C)c(-c3cnn(C(CC#N)C4CCCC4)c3)n2)cc1 (racemic) [Example 75, 3-cyclopentyl-3-(4-(2-(4-methoxyphenylamino)-5-methylpyrimidin-4-yl)-1H-pyrazol-1-yl)propanenitrile] | < 100 nM
21 | CC(=O)Nc1ccc(Nc2ncc(C)c(-c3cnn(C(CC#N)C4CCCC4)c3)n2)cc1 (racemic) [Example 76, N-(4-(4-(1-(2-cyano-1-cyclopentylethyl)-1H-pyrazol-4-yl)-5-methylpyrimidin-2-ylamino)phenyl)acetamide] | < 100 nM
22 | Cc1cnc(Nc2ccc(C(=O)N(C)C)cc2)nc1-c1cnn(C(CC#N)C2CCCC2)c1 (racemic) [Example 77, 4-(4-(1-(2-cyano-1-cyclopentylethyl)-1H-pyrazol-4-yl)-5-methylpyrimidin-2-ylamino)-N,N-dimethylbenzamide] | < 100 nM
23 | Cc1cnc(Nc2ccc(N3CCNCC3)cc2)nc1-c1cnn(C(CC#N)C2CCCC2)c1 (racemic) [Example 78, 3-cyclopentyl-3-(4-(5-methyl-2-(4-(piperazin-1-yl)phenylamino)pyrimidin-4-yl)-1H-pyrazol-1-yl)propanenitrile] | < 100 nM
24 | CCN(CC)c1ccc(Nc2ncc(C)c(-c3cnn(C(CC#N)C4CCCC4)c3)n2)cc1 (racemic) [Example 79, 3-cyclopentyl-3-(4-(2-(4-(diethylamino)phenylamino)-5-methylpyrimidin-4-yl)-1H-pyrazol-1-yl)propanenitrile] | < 100 nM
25 | CCN(CCCO)c1ccc(Nc2ncc(C)c(-c3cnn(C(CC#N)C4CCCC4)c3)n2)cc1 (racemic) [Example 80, 3-cyclopentyl-3-(4-(2-(4-(ethyl(3-hydroxypropyl)amino)phenylamino)-5-methylpyrimidin-4-yl)-1H-pyrazol-1-yl)propanenitrile] | < 100 nM
26 | Cc1cnc(Nc2ccc(C(=O)O)cc2)nc1-c1cnn(C(CC#N)C2CCCC2)c1 (racemic) [Example 81, 4-(4-(1-(2-cyano-1-cyclopentylethyl)-1H-pyrazol-4-yl)-5-methylpyrimidin-2-ylamino)benzoic acid] | < 100 nM
27 | Cc1cnc(Nc2ccc([N+](=O)[O-])cc2)nc1-c1cnn(C(CC#N)C2CCCC2)c1 (racemic) [Example 82, 3-cyclopentyl-3-(4-(5-methyl-2-(4-nitrophenylamino)pyrimidin-4-yl)-1H-pyrazol-1-yl)propanenitrile] | < 100 nM
28 | Cc1cnc(Nc2ccc(C(=O)NCCO)cc2)nc1-c1cnn(C(CC#N)C2CCCC2)c1 (racemic) [Example 83, 4-(4-(1-(2-cyano-1-cyclopentylethyl)-1H-pyrazol-4-yl)-5-methylpyrimidin-2-ylamino)-N-(2-hydroxyethyl)benzamide] | < 100 nM
29 | Cc1cnc(Nc2cccc(-c3cnco3)c2)nc1-c1cnn(C(CC#N)C2CCCC2)c1 (racemic) [Example 84, 3-cyclopentyl-3-(4-(5-methyl-2-(3-(oxazol-5-yl)phenylamino)pyrimidin-4-yl)-1H-pyrazol-1-yl)propanenitrile] | < 100 nM

From patent publication US8309718B2, “4-pyrazolyl-N-arylpyrimidin-2-amines and 4-pyrazolyl-N-heteroarylpyrimidin-2-amines as janus kinase inhibitors” (Incyte Corporation, priority 2007, dated 2012)
